Assay results as given in patent US8785452B2, “Anti-infective compounds” (priority 2008, dated 2014).
Like-named read-outs stand apart in the source and are kept apart here.

Legend:
[1] = system: M. tuberculosis H37Rv-GFP; assay: microbe, parasite or virus in culture; format: cell-based, Mycobacterium tuberculosis; conditions: Mycobacterium tuberculosis, H37RV, Macrophage; for inhibition at 0.2 µM: read-out: QIM Confirm % Inhibition 0.2 uM; for inhibition at 2 µM: read-out: QIM Confirm % Inhibition 2 uM
[2] = system: Raw264.7 cells; assay: Cell number (CellNb) from image analysis of the phenotypic cell-based assay
[3] = system: M. tuberculosis H37Rv-GFP; assay: microbe, parasite or virus in culture; format: cell-based; conditions: Mycobacterium tuberculosis; for inhibition at 0.2 µM: read-out: QUM Confirm % Inhibition 0.2 uM; for inhibition at 2 µM: read-out: QUM Confirm % Inhibition 2 uM; for inhibition at 20 µM: read-out: QUM Confirm % Inhibition 20 uM
[4] = confirmation, 0.2 uM, intracellular
[5] = confirmation, 2 uM, intracellular
[6] = confirmation, 20 uM, read-out: QIM Confirm % Inhibition 20 uM
[7] = primary screen, 20 μM, read-out: Primary QIM % Inhibition
[8] = read-out: Primary QIM % Inhibition
[9] = read-out: QIM Confirm % Inhibition 20 uM

Row | Compound | inhibition at 0.2 µM [1, 4] [%] | inhibition at 2 µM [1, 5] [%] | inhibition at 20 µM [1, 6] [%] | inhibition at 20 µM [1, 7] [%] | QIM Confirm CellNb 0.2 uM ([2]; confirmation, 0.2 uM) | QIM Confirm CellNb 2 uM ([2]; confirmation, 2 uM) | QIM Confirm CellNb 20 uM ([2]; confirmation, 20 uM) | Primary QIM CellNb ([2]; primary screen, 20 μM) | inhibition at 0.2 µM [3] [%] | inhibition at 2 µM [3] [%] | inhibition at 20 µM [3] [%] | inhibition at 20 µM [1, 8] [%] | inhibition at 0.2 µM [1] [%] | inhibition at 2 µM [1] [%] | inhibition at 20 µM [1, 9] [%] | Primary QIM CellNb [2] | QIM Confirm CellNb 0.2 uM [2] | QIM Confirm CellNb 2 uM [2] | QIM Confirm CellNb 20 uM [2]
1 | CCOC(=O)/N=C(\NC(C)=O)c1cccc(Cl)c1 [IPK 000 033 61] | 16.2 | 13.8 | 62.9 | 31.6 | 210.8 | 434.1 | 111.8 | 188.3 | 51.6 | 37.6 | 67.1 | – | – | – | – | – | – | – | –
2 | O=C(Oc1cccc2cccnc12)c1cccc([N+](=O)[O-])c1 [IPK 000 018 66] | 8.6 | 0.4 | 16.7 | -26.8 | 258.1 | 296.6 | 130.4 | 63.3 | 39.3 | 72 | 99.6 | – | – | – | – | – | – | – | –
3 | Cc1ccc2ccc3ccc(C)nc3c2n1 [IPK 000 002 03] | -2 | 7.7 | -12.3 | -28.5 | 241.4 | 92.0 | 148.0 | 77.0 | 32.5 | 52.4 | 69.7 | – | – | – | – | – | – | – | –
4 | CN1CCN(c2nc(Nc3ccc(OC(F)(F)F)cc3)nc(OCC(F)(F)F)n2)CC1 [IPK 000 008 12] | 2.7 | 18.9 | 78.4 | 64.1 | 292.9 | 225.6 | 248.0 | 396.3 | 36.5 | 39.7 | 48 | – | – | – | – | – | – | – | –
5 | O=C(CSc1cccs1)Nc1nccs1 [IPK 000 002 87] | 11.4 | -1.3 | 66 | 65.9 | 315.9 | 246.1 | 412.9 | 350.3 | 45.9 | 36.1 | 36.4 | – | – | – | – | – | – | – | –
6 | O=C(NCCOCc1ccccc1)c1cc([N+](=O)[O-])cc([N+](=O)[O-])c1 [IPK 000 027 91] | – | – | – | – | – | – | – | – | 65.8 | 97.6 | 75 | 89 | 14.2 | 98.5 | 46.1 | 410.8 | 295.3 | 434.1 | 325.6
7 | CC1=NN(C(=O)c2ccncc2)C(O)(C(F)(F)F)C1 (stereo not drawn) [IPK 000 009 78] | 17 | 50.2 | 88.6 | 103 | 325.5 | 414.4 | 376.1 | 454.5 | 30 | 61.1 | 100 | – | – | – | – | – | – | – | –
8 | C/C(=N\NOCc1cc([N+](=O)[O-])cc([N+](=O)[O-])c1)c1ccccc1 [IPK 000 035 56] | 9.1 | 18.8 | 89 | 83.3 | 247.1 | 313.1 | 524.3 | 266.0 | 41.5 | 39.6 | 65.6 | – | – | – | – | – | – | – | –
9 | O=C(N/N=C/c1cccc([N+](=O)[O-])c1)c1ccncc1 [IPK 000 041 47] | 74.5 | 102 | 95.5 | 102 | 479.8 | 516.1 | 345.8 | 362.8 | 43.8 | 82.3 | 99.5 | – | – | – | – | – | – | – | –
10 | O=C(/C=C/c1ccc(Cl)cc1Cl)c1ccc(Cl)cc1 [IPK 000 015 36] | 15.8 | -4.8 | 36.1 | 38.1 | 331.0 | 286.0 | 168.0 | 146.5 | 41.9 | 59.4 | 79.5 | – | – | – | – | – | – | – | –
11 | CCCCS(=O)(=O)/C=C\C=C\S(=O)(=O)CCCC [IPK 000 036 07] | 17.2 | 32 | 59.5 | 27.7 | 267.4 | 293.9 | 164.4 | 142.3 | 42.3 | 47.9 | 70.6 | – | – | – | – | – | – | – | –
12 | CCCSc1nnc(-c2ccc(Cl)cc2Cl)o1 [IPK 000 024 43] | 50.4 | 58.3 | 59.1 | 5.8 | 352.1 | 349.0 | 205.0 | 203.8 | 34.7 | 40.1 | 67.7 | – | – | – | – | – | – | – | –
13 | N#Cc1ccccc1NC(=O)CSc1nc2ccccc2s1 [IPK 000 018 97] | 7.3 | 20 | 83.8 | 76.7 | 288.5 | 299.8 | 553.9 | 314.0 | 40.5 | 33.9 | 36.1 | – | – | – | – | – | – | – | –
14 | O=C(N/N=C/C=C/c1ccccc1)c1ccncc1 [IPK 000 013 68] | 50.9 | 102 | 67.2 | 65 | 400.1 | 528.8 | 438.8 | 276.3 | 50.4 | 77.1 | 77.6 | – | – | – | – | – | – | – | –
15 | O=C(N/N=C/c1ccco1)c1ccncc1 [IPK 000 013 67] | – | – | – | – | – | – | – | – | 49.4 | 90.2 | 69.7 | 98.7 | 84.1 | 102 | 66.7 | 358.0 | 452.5 | 545.1 | 457.3
16 | C/C(=N/NC(=O)c1ccncc1)c1cccs1 [IPK 000 003 01] | 4.7 | 77.1 | 40.4 | 88.2 | 232.6 | 457.3 | 248.3 | 373.5 | 46.4 | 82.8 | 43 | – | – | – | – | – | – | – | –
17 | O=C(N/N=C/c1cc(Br)cc(Br)c1O)c1ccncc1 [IPK 000 009 33] | 8.5 | 92.5 | 56.9 | 79.9 | 264.8 | 475.9 | 333.6 | 314.5 | 31.8 | 44.5 | 69.8 | – | – | – | – | – | – | – | –
18 | Clc1ccc(Nc2nc3nonc3nc2Nc2ccc(Cl)c(Cl)c2)cc1Cl [IPK 000 003 89] | 20.1 | 86.6 | 84.6 | 27.7 | 265.3 | 200.6 | 103.0 | 72.5 | 44 | 76.5 | 67 | – | – | – | – | – | – | – | –
19 | C/C(=N\NC(N)=S)c1ccc(Cl)cc1 [IPK 000 002 17] | – | – | – | – | – | – | – | – | 56.9 | 67.4 | 49.7 | 26.6 | 54.5 | 70.4 | 24.5 | 235.5 | 472.3 | 541.6 | 249.8
20 | O=C(NCc1ccc2c(c1)OCO2)c1cc([N+](=O)[O-])cc([N+](=O)[O-])c1 [IPK 000 027 85] | 83 | 99.4 | 40.1 | 100 | 429.3 | 487.4 | 224.8 | 315.0 | 97.2 | 97.9 | 71.7 | – | – | – | – | – | – | – | –
21 | O=C(Oc1cccc2ncccc12)c1ccccc1F [IPK 000 018 65] | 28 | 14 | 39.2 | 23.1 | 256.6 | 218.3 | 256.4 | 218.0 | 36.4 | 54 | 99 | – | – | – | – | – | – | – | –
